Where “and” joins values, the source holds several entries; their conditions need not be identical. Equal entries are not always repeated.
Test system: collagen-induced arthritis in Lewis rats
Assay: Collagen-induced arthritis (CIA) model in rats: body weight, paw volume, clinical scores, clinical observations
Conditions: for Animal body weight percent change / Animal body weight: Group 5 (CIA + Example 101 3 mg/kg)
[1] = Day 1, individual animals, 3 mg/kg
[2] = Day 3, individual animals, 3 mg/kg
[3] = Day 7, individual animals, 3 mg/kg

Structure (SMILES): CNC(=O)c1[nH]c(C(=O)NC2CCC2)cc1O[C@@H](C)c1ccccc1 [Example 101, N^5-cyclobutyl-N^2-methyl-3-(1-phenylethoxy)-1H-pyrrole-2,5-dicarboxamide]
- Average animal body weight percent change (Day 12, CIA + 30 mg/kg): 0.66%
- Mean animal body weight (Day 12, CIA + 30 mg/kg): 163 g
- Average animal body weight percent change (Day 13, CIA + 3 mg/kg): 7.74%
- Mean animal body weight (Day 13, CIA + 3 mg/kg): 178 g
- Average animal body weight percent change (Day 13, CIA + 10 mg/kg): 3.92%
- Mean animal body weight (Day 13, CIA + 10 mg/kg): 169 g
- Average animal body weight percent change (Day 13, CIA + 30 mg/kg): 0.18%
- Mean animal body weight (Day 13, CIA + 30 mg/kg): 162 g
- Average animal body weight percent change (Day 14, CIA + 3 mg/kg): 7.08%
- Mean animal body weight (Day 14, CIA + 3 mg/kg): 177 g
- Average animal body weight percent change (Day 14, CIA + 10 mg/kg): 4.05%
- Mean animal body weight (Day 14, CIA + 10 mg/kg): 169 g
- Average animal body weight percent change (Day 14, CIA + 30 mg/kg): 1.42%
- Mean animal body weight (Day 14, CIA + 30 mg/kg): 164 g
- Average animal body weight percent change (Day 15, CIA + 3 mg/kg): 5.15%
- Mean animal body weight (Day 15, CIA + 3 mg/kg): 173 g
- Average animal body weight percent change (Day 15, CIA + 10 mg/kg): 3.31%
- Mean animal body weight (Day 15, CIA + 10 mg/kg): 168 g
- Average animal body weight percent change (Day 15, CIA + 30 mg/kg): 2.38%
- Mean animal body weight (Day 15, CIA + 30 mg/kg): 166 g
- Average animal body weight percent change (Day 16, CIA + 3 mg/kg): 3.90%
- Mean animal body weight (Day 16, CIA + 3 mg/kg): 171 g
- Average animal body weight percent change (Day 16, CIA + 10 mg/kg): 2.23%
- Mean animal body weight (Day 16, CIA + 10 mg/kg): 166 g
- Average animal body weight percent change (Day 16, CIA + 30 mg/kg): 1.69%
- Mean animal body weight (Day 16, CIA + 30 mg/kg): 165 g
- Average animal body weight percent change (Day 17, CIA + 3 mg/kg): 3.37%
- Mean animal body weight (Day 17, CIA + 3 mg/kg): 170 g
- Average animal body weight percent change (Day 17, CIA + 10 mg/kg): 2.29%
- Mean animal body weight (Day 17, CIA + 10 mg/kg): 166 g
- Average animal body weight percent change (Day 17, CIA + 30 mg/kg): 1.41%
- Mean animal body weight (Day 17, CIA + 30 mg/kg): 164 g
- Average animal body weight percent change (Day 18, CIA + 3 mg/kg): 2.36%
- Mean animal body weight (Day 18, CIA + 3 mg/kg): 169 g
- Average animal body weight percent change (Day 18, CIA + 10 mg/kg): 1.38%
- Mean animal body weight (Day 18, CIA + 10 mg/kg): 165 g
- Average animal body weight percent change (Day 18, CIA + 30 mg/kg): 1.61%
- Mean animal body weight (Day 18, CIA + 30 mg/kg): 165 g
- Average animal body weight percent change (Day 19, CIA + 3 mg/kg): 0.91%
- Mean animal body weight (Day 19, CIA + 3 mg/kg): 166 g
- Average animal body weight percent change (Day 19, CIA + 10 mg/kg): 0.76%
- Mean animal body weight (Day 19, CIA + 10 mg/kg): 164 g
- Average animal body weight percent change (Day 19, CIA + 30 mg/kg): 1.24%
- Mean animal body weight (Day 19, CIA + 30 mg/kg): 164 g
- Average animal body weight percent change (Day 20, CIA + 3 mg/kg): 1.13%
- Mean animal body weight (Day 20, CIA + 3 mg/kg): 167 g
- Average animal body weight percent change (Day 20, CIA + 10 mg/kg): 1.30%
- Mean animal body weight (Day 20, CIA + 10 mg/kg): 164 g
- Average animal body weight percent change (Day 20, CIA + 30 mg/kg): 0.50%
- Mean animal body weight (Day 20, CIA + 30 mg/kg): 163 g
- Average animal body weight percent change (Day 21, CIA + 3 mg/kg): 1.73%
- Mean animal body weight (Day 21, CIA + 3 mg/kg): 168 g
- Average animal body weight percent change (Day 21, CIA + 10 mg/kg): 0.53%
- Mean animal body weight (Day 21, CIA + 10 mg/kg): 163 g
- Average animal body weight percent change (Day 21, CIA + 30 mg/kg): 0.50%
- Mean animal body weight (Day 21, CIA + 30 mg/kg): 163 g
- Animal body weight percent change (Day 0, individual animals): 0.00%
- Animal body weight [1]: 170 g
- Animal body weight percent change [1]: −0.58% and 0.65%
- Animal body weight percent change (Day 2, individual animals, 3 mg/kg): 0.62% and 0.56% and −1.20%
- Animal body weight [2]: 160 g and 170 g
- Animal body weight percent change [2]: −0.62% and −1.13% and −0.60%
- Animal body weight (Day 4, individual animals, 3 mg/kg): 170 g
- Animal body weight percent change (Day 5, individual animals, 3 mg/kg): 0.00%
- Animal body weight (Day 6, individual animals, 3 mg/kg): 180 g and 160 g
- Animal body weight [3]: 160 g and 180 g
- Animal body weight percent change [3]: 0.63%
- Animal body weight (Day 8, individual animals, 3 mg/kg): 160 g
- Animal body weight (Day 9, individual animals, 3 mg/kg): 170 g
- Animal body weight percent change (Day 10, individual animals, 3 mg/kg): 9.70%
- Animal body weight (Day 11, individual animals, 3 mg/kg): 180 g
